Results as given in PMC5267425, “Identification of small molecule modulators of HIV-1 Tat and Rev protein accumulation” (Retrovirology, 2017).

Tested on: HIV-1 BaL
Experiment: HIV-1 BaL replication in PBMCs, p24 antigen ELISA
Format: cell-based
Details: for IC50: Human immunodeficiency virus 1, BAL, PBMC
Experimental: To examine the effect of compounds on viral replication, studies were carried out in peripheral blood mononuclear cells (PBMCs). PBMCs were isolated from healthy (HIV-uninfected) volunteer blood donors as described by Dobson-Belaire et al.. Informed consent was obtained from participants in accordance with the guidelines for conduct of clinical research at the University of Toronto and St. Michael’s Hospital, Toronto, Ontario, Canada. Stored PBMCs were thawed, washed with RPMI 1640 complete medium and cultured in RPMI 1640 complete medium containing 2 μg/mL of PHA-L (Sigma-Aldrich) and 20 U/mL of IL-2 (BD Pharmingen) for 72 h. Subsequently, cells were counted and a portion of the cells was separated to another tube for uninfected control treatments. The remaining PBMCs were resuspended in media containing HIV-1 BaL at a multiplicity of infection (MOI) of approximately 0.01 and infected by spinoculation, following which cells were washed twice with room temperature RPMI 1640 complete medium and resuspended to a concentration of 5 × 10^5 cells/mL in complete RPMI 1640 containing 20 U/mL of IL-2. Compounds were added to infected PBMCs or uninfected control PBMCs. Azidothymidine (AZT, Sigma-Aldrich) was used as control treatment at a final concentration of 3.74 μM. On day 4 post infection, culture medium was replenished with the compounds and IL-2 in fresh complete RPMI 1640. On days 2, 4, 6 and 8 post infection, culture supernatant was harvested, virus lysed by adjusting to 1% TritonX-100 and stored at −20 °C for p24 antigen ELISA. A fraction of the culture was harvested to assess percent cell viability by trypan blue exclusion using Glasstic slides (Kova). Relative percent cell viability in compound treated samples versus DMSO-control treated samples was calculated as follows: (total viable cells/total cells)compound/(total viable cells/total cells)DMSO.
ELISA for p24 Gag antigen was performed on cell supernatants using kits purchased from Frederick National Laboratory for Cancer Research (Leidos) or XpressBio extended range kit and performed according to manufacturer’s instructions. Protein concentration in cell lysates was quantified by Bradford assay and equal amounts of protein run on 7, 10, 12, or 14% SDS-PAGE, depending on the protein of interest. Following transfer to PVDF (BioRad or Perkin-Elmer), blots were blocked in either 5% Milk-PBS-T (5% Milk, 0.05% Tween-20, 1× PBS) or 3% BSA-PBS-T (3% BSA, 0.05% Tween-20, 1× PBS) prior to incubating with primary antibody (all diluted in 3% BSA-PBS-T). […] Quantification of the relative intensity of the detected bands was done using ImageLab software and normalized to corresponding bands of the loading control (GAPDH or α-Tubulin).

Which IC50 does the source give for `Cc1cc(NCc2cccnc2)n2ncc(-c3ccc(Cl)cc3)c2n1` [Compound 791, 3-(4-chlorophenyl)-5-methyl-N-(3-pyridinylmethyl)pyrazolo[1,5-a]pyrimidin-7-amine] here?
The IC50 was 1500 nM.

What about the “doses inhibiting HIV-1 virus production that did not affect cell viability” value (PBMCs, 2–4 donors) of the same compound?
Its value is less than 5 µM.

`O=C(NC(=S)NNC(=O)c1ccccc1O)c1ccc(-c2ccccc2)cc1` [Compound 833, N-([2-(2-hydroxybenzoyl)hydrazino]carbonothioyl}-4-biphenylcarboxamide] was tested. Which IC50 did it give?
The IC50 was 1600 nM.

For `COc1ccc(C=NNC(=O)c2ccccc2O)cc1O` [Compound 892, 2-hydroxy-N′-(3-hydroxy-4-methoxybenzylidene)benzohydrazide], which IC50 is on record?
The IC50 was 2000 nM.
